Results reported in patent publication US5041355A, “High contrast photographic element including an aryl sulfonamidophenyl hydrazide containing ethyleneoxy groups” (Eastman Kodak Company, priority 1990, dated 1991).

Experiment: relative speed and contrast of silver halide coatings containing nucleator and incorporated booster, exposed and processed in developer
Details: for Relative Speed: 1 minute at 35° C., developer pH 10.5; for lower scale activity (speed): in words
Procedure: Each coating used in the following examples was prepared on a polyester support, using a mono-dispersed 0.24 μm AgBrI (2.5 mol % iodide) iridium-doped emulsion at 3.51 g/m^2 Ag, 2.54 g gel/m^2, and 1.08 g latex/m^2 where the latex is a copolymer of methyl acrylate, 2-acrylamido-2-methylpropane sulfonic acid, and 2-acetoacetoxyethylmethylacrylate. The silver halide emulsion was spectrally sensitized with 214 mg/Ag mol of anhydro-5,5'-dichloro-9-ethyl-3,3'-di-(3-sulfopropyl)oxacarbocyanine hydroxide, triethylene salt and the emulsion layer was overcoated with gelatin containing polymethylmethacrylate beads. The nucleating agent was added as a methanol solution to the emulsion melts at a level in millimoles (mM) per mole of silver as hereinafter indicated. An "incorporated booster" was added as a methanol solution in an amount of 64.6 milligrams per square meter of photographic element. The compound employed as the "incorporated booster" is represented by the formula: [drawing 8] where Pr represents n-propyl. Coatings were exposed for five seconds to a 3000° K. tungsten light source and processed for 1 minute at 35° C. in the developer solution.
To prepare the developer solution, a concentrate was prepared from the following ingredients:
The concentrate was diluted at a ratio of one part of concentrate to two parts of water to produce a working strength developing solution with a pH of 10.5.

[1] = concentration of nucleator 1.0 mM/Ag mole
[2] = concentration of nucleator 2.0 mM/Ag mole

Compound	speed compared with Test 2 (Test 7 (1.0 mM/Ag mole) versus Test 2 (2.0 mM/Ag mole))	Relative Speed [1]	Relative Speed [2]	lower scale activity (speed)	Relative Speed (concentration of nucleator 1.9 mM/Ag mole)
CCCCCCCOCCOCCOCCOCCOCCOCCOCCOCCOCCOc1ccc(S(=O)(=O)Nc2ccc(NNC=O)cc2)cc1 [hydrazide I-4]	somewhat greater speed	105	110	beneficial effects upon lower scale activity (speed)	–
CCCCCOCCOCCOCCOCCOc1ccc(S(=O)(=O)Nc2ccc(NNC=O)cc2)cc1OCCOCCOCCOCCOCCCCC [hydrazide I-8]	–	98	–	beneficial effects upon lower scale activity (speed)	105
CC(C)c1ccc(C(C)C)c(S(=O)(=O)Nc2ccc(NNC=O)cc2)c1 [reference compound]	–	87	100	–	–
CCCCCCCCOCCOCCOc1ccc(S(=O)(=O)Nc2ccc(NNC=O)cc2)cc1 [reference compound]	–	87	93	–	–
